What was measured:
[1] = tested on: mitochondrial hexokinase of the VX2 tumor; experiment: Hexokinase activity assay coupled to glucose-6-phosphate dehydrogenase; assay type: biochemical, rabbit; conditions: VX2 tumor mitochondria, cell free
Experimental: The freshly isolated liver or VX2 tumor tissues (15-20 g wet weight) was rinsed in 3 volumes of H-medium (210 mM D-mannitol, 70 mM sucrose, 2 mM Hepes, and 0.05% bovine albumin, pH 7.4) at 4° C. and minced with a razor blade as finely as possible. A 30% (V/V) suspension was made using ice-cold H-medium in a Potter-Elvehjem glass homogenizer (55 ml capacity), and homogenization was achieved by applying 4 complete up and down strokes through the suspension with a rotating (˜400 rpm), serrated, teflon pestle attached to a motor. To remove cell debris and nuclei, the resultant homogenate was diluted to twice the initial volume and centrifuged at 630×g for 8 minutes at 4° C. in a Sorvall RC-2B centrifuge using a GSA rotor. The supernatant was removed and then centrifuged at 6,800 g for 15 min under the same conditions. The resultant supernatant was saved and referred to here as the cytosolic faction. The pellet was resuspended in the initial volume of H-medium and centrifuged twice at 9,800×g for 15 min at 4° C. The washed pellet represents the mitochondrial fraction.
The assay coupled the glucose-6-phosphate formed in the hexokinase reaction to the glucose-6-phosphate dehydrogenase reaction. Here, NADP+, oxidizes glucose-6-phosphate to a g-lactone while becoming reduced to NADPH, thus allowing the formation of the latter to be monitored spectrophotometrically at 340 nm. […]

[2] = Acute toxicity study, single IV dose in rabbits; assay type: in vivo, rabbit
Experimental: In addition, an acute toxicity study was performed to determine the effects of 3-bromopyruvate administered IV. Based on the data acquired in rats, rabbits (2 animals per group followed for 1 week) were given 25 ml of 15, 20, and 25 mM 3-bromopyruvate as a single IV dose (i.e., using dose identified for rats).

VX2 rabbit liver tumors = experiment: Intraarterial dose and infusion modality optimisation in VX2 liver cancer; assay type: in vivo
Experimental: In a therapeutic dose study, 25 ml of 2.5 and 5 mM 3-BrPA were injected as a single intraarterial bolus over two minutes. Although these doses (2.5 and 5 mM) were 0.5 and 1 log higher than the 0.5 mM dose previously investigated, these doses were well within the IV therapeutic dose established in rats and rabbits.
Since patients with HCC also suffer from underlying liver disease such as cirrhosis and hepatitis, an important translational consideration for therapy is the absolute necessity to protect and preserve healthy liver parenchyma. To lessen the degree of liver toxicity, different temporal modalities of intraarterial injection were tested. One possibility was that such a large volume, delivered within the short time of 2 minutes may have added physical and chemical toxic effects on the liver. Thus, a 1-hour continuous infusion and a serial infusion of 2 boluses administered an hour apart were compared against the original single bolus dose. The volume of 25 mL and the concentration of 2.5 mM 3-bromopyruvate were kept constant. […] In each of these experiments, rabbits were sacrificed 48 hours after treatment and representative sections obtained of tumor and normal tissues (7 slides/sample). The samples were subjected to histopathological analysis to determine percentage tumor cell death and damage to the surrounding normal liver tissue. This was then confirmed with the TUNEL assay (FIG. 7) and Ki-67 immunohistochemistry. […] The prolonged slow infusion eliminated most, if not all, of the unwanted damage to the normal liver enabling the use of a much higher dose of 3-bromopyruvate to ensure complete destruction of the tumor.
Having determined that prolonged intraarterial infusion of 3-bromopyruvate was the optimal method of administration, a dose-response analysis was conducted. In part, this dose-response analysis was prompted by the persistent toxicity to healthy liver encountered at 2.5 mM. The objective was to optimize the 1-hour infusion in order to achieve complete tumor eradication without any toxicity to the normal liver parenchyma. Rabbits were intraarterially infused over 1-hour with doses ranging between 0.5 and 2.5 mM in 0.25 mM increments. The rabbits were fasted 24 hours prior to treatment and euthanized 48 hours after treatment. […] This total destruction was identified by histopathology (H&E) and confirmed by the TUNEL assay (FIG. 7). […] One possible explanation for this finding may be that 3-bromopyruvate at higher doses may have other cellular and chemical functions that are much more toxic to the normal liver parenchyma therein impeding the delivery of 3-bromopyruvate exclusively to the tumor. Thus, the healthy liver's ability to metabolize 3-bromopyruvate was optimal at the concentration of 1.75 mM.
To further explore use of the continuous infusion method of delivery, the effect of a 2-hour continuous infusion of 50 mL 1.75 mM 3-BrPA was tested.

[3] = Survival analysis, treatment versus control group (Kaplan-Meier); assay type: in vivo, rabbit; conditions: 11 animals, control 18.6 days
Description: FIG. 9 is a graph showing survival of untreated (control) versus 3-bromopyruvate treated animals.
The control group consisted of 10 animals and the treatment group consisted of 11 animals. The Kaplan-Meier method was used to estimate survival curves. […] The mean survival time in the control group is 18.6 days as compared to the treatment group, with 50.0 days.

[4] = 25 ml 5 mM, single IA bolus over two minutes

O=C(O)C(=O)CBr [3-bromopyruvate]
concentration for complete inhibition of hexokinase activity [1]: 5 mM | organ toxicity ([2]; 20 mM single IV dose): no evidence of any organ toxicity | therapeutic dose, intravenous ([2]; 25 ml single IV dose, 1 week): 20 mM | therapeutic dose, intravenous ([2]; single IV dose): 16.8 mg/kg | major organ toxicity (VX2 rabbit liver tumors; 1-hour intraarterial infusion of 25 mL of 1.75 mM): without any evidence of major organ toxicity | tumor kill and liver toxicity versus 1-hour infusion (VX2 rabbit liver tumors; 2-hour continuous infusion of 50 mL 1.75 mM): no significant difference | damage to the normal liver (VX2 rabbit liver tumors; 25 mL 1.75 mM, 1-hour IA infusion): without any damage | tumor cell destruction (VX2 rabbit liver tumors; 25 mL 1.75 mM, 1-hour IA infusion, 48 hours, H&E and TUNEL): 100% | liver toxicity versus single bolus and 2 serial boluses (VX2 rabbit liver tumors; 25 mL 2.5 mM, 1-hour continuous IA infusion, 48 hours): considerably less | surrounding healthy liver (VX2 rabbit liver tumors; 25 ml 2.5 mM, single IA bolus): large areas of necrosis and fatty changes | survival after treatment (VX2 rabbit liver tumors; 25 ml 2.5 mM, single IA bolus): barely able to survive for more than 48 hours | tumor destruction (VX2 rabbit liver tumors; 25 ml 2.5 mM, single IA bolus over two minutes): complete tumor destruction | mortality (VX2 rabbit liver tumors; 25 ml 5 mM, single IA bolus): death of all the rabbits | other major organs, histopathology at necropsy (VX2 rabbit liver tumors; 25 ml 5 mM, single IA bolus): completely uneffected | surrounding healthy liver (VX2 rabbit liver tumors; [4]): widespread necrosis | tumor destruction (VX2 rabbit liver tumors; [4]): completely destroyed the tumor | toxicity to the healthy liver tissue (VX2 rabbit liver tumors; doses higher than 1.75 mM, 1-hour IA infusion): increased toxicity | mean survival time [3]: 50.0 days
